Assay results as given in ChEMBL document CHEMBL1201862, “PubChem BioAssay data set” (2004).
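Grown in 96-well plates, cells were treated for 48 hours with each compound at five concentrations. Insufficient inhibition: endpoint recorded as highest concentration tested. GI50 = concentration required for 50% inhibition of growth.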 The source made the active and inactive calls. No stated cut-off is given here; in the data, active = GI50 up to about 1.1 µM and inactive = higher.

Legend:
Assay in all cases: NCI tumour cell line growth inhibition, 48 h
786-0 = tested on: 786-0
A549 = tested on: A549
ACHN = tested on: ACHN
BT-549 = tested on: BT-549
CAKI-1 = tested on: CAKI-1
COLO 205 = tested on: COLO 205
DU-145 = tested on: DU-145
EKVX = tested on: EKVX
HCT-116 = tested on: HCT-116
HCT-15 = tested on: HCT-15
HL-60 = tested on: HL-60
HOP-62 = tested on: HOP-62
HOP-92 = tested on: HOP-92
HT-29 = tested on: HT-29
Hs-578T = tested on: Hs-578T
IGROV-1 = tested on: IGROV-1
K562 = tested on: K562
KM12 = tested on: KM12
LOX IMVI = tested on: LOX IMVI
M14 = tested on: M14
MCF7 = tested on: MCF7
MDA-MB-231 = tested on: MDA-MB-231
MDA-MB-435 = tested on: MDA-MB-435
MOLT-4 = tested on: MOLT-4
Malme-3M = tested on: Malme-3M
NCI-H226 = tested on: NCI-H226
NCI-H460 = tested on: NCI-H460
NCI-H522 = tested on: NCI-H522
OVCAR-3 = tested on: OVCAR-3
OVCAR-4 = tested on: OVCAR-4
OVCAR-5 = tested on: OVCAR-5
OVCAR-8 = tested on: OVCAR-8
PC-3 = tested on: PC-3
RPMI-8226 = tested on: RPMI-8226
SF-268 = tested on: SF-268
SF-295 = tested on: SF-295
SF-539 = tested on: SF-539
SK-MEL-28 = tested on: SK-MEL-28
SK-MEL-2 = tested on: SK-MEL-2
SK-OV-3 = tested on: SK-OV-3
SN12C = tested on: SN12C
SNB-19 = tested on: SNB-19
SNB-75 = tested on: SNB-75
SR = tested on: SR
SW-620 = tested on: SW-620
T47D = tested on: T47D
TK-10 = tested on: TK-10
U-251 = tested on: U-251
UACC-257 = tested on: UACC-257
UACC-62 = tested on: UACC-62
A498 = tested on: A498
CCRF-CEM = tested on: CCRF-CEM
HCC 2998 = tested on: HCC 2998
MDA-N = tested on: MDA-N
NCI-H23 = tested on: NCI-H23
NCI/ADR-RES = tested on: NCI/ADR-RES
RXF 393 = tested on: RXF 393
SK-MEL-5 = tested on: SK-MEL-5
UO-31 = tested on: UO-31

Measured: GI50

Cc1nc(=O)c2cc(CN(C)c3ccc(C(=O)N[C@@H](CCC(=O)O)C(=O)O)s3)ccc2[nH]1 [RALTITREXED]
inactive: A549 11.9 µM | BT-549 71.4 µM | CAKI-1 > 100 µM | COLO 205 > 100 µM | EKVX > 100 µM | HL-60 5.92 µM | HOP-92 > 100 µM | HT-29 > 100 µM | Hs-578T > 100 µM | IGROV-1 > 100 µM | KM12 > 100 µM | MCF7 8.04 µM | MDA-MB-231 > 100 µM | MDA-MB-435 > 100 µM | NCI-H226 > 100 µM | NCI-H522 > 100 µM | OVCAR-3 > 100 µM | OVCAR-4 > 100 µM | OVCAR-5 > 100 µM | PC-3 > 100 µM | SF-268 12.8 µM | SF-539 84.7 µM | SK-MEL-28 > 100 µM | SK-MEL-2 > 100 µM | SK-OV-3 > 100 µM | SNB-19 > 100 µM | SNB-75 6.79 µM | SW-620 > 100 µM | T47D > 100 µM | TK-10 > 100 µM | UACC-257 > 100 µM
active: 786-0 0.0438 µM | ACHN 0.0467 µM | DU-145 0.273 µM | HCT-116 0.264 µM | HOP-62 0.13 µM | K562 0.0104 µM | LOX IMVI 0.0303 µM | M14 0.0931 µM | MOLT-4 0.0977 µM | Malme-3M 0.303 µM | NCI-H460 0.041 µM | OVCAR-8 0.0883 µM | RPMI-8226 0.0834 µM | SF-295 0.0535 µM | SN12C 0.65 µM | SR 0.0399 µM | U-251 0.546 µM | UACC-62 0.193 µM
> 100 µM: HCT-15

O=C(Nc1nc(C23CC4CC(CC(C4)C2)C3)cs1)c1cc2ccccc2oc1=O
inactive: 786-0 > 100 µM | A498 > 100 µM | A549 38.2 µM | ACHN > 100 µM | BT-549 > 100 µM | CAKI-1 > 100 µM | CCRF-CEM > 100 µM | COLO 205 > 100 µM | DU-145 > 100 µM | EKVX > 100 µM | HCC 2998 > 100 µM | HCT-116 > 100 µM | HL-60 > 100 µM | HOP-62 > 100 µM | HOP-92 > 100 µM | HT-29 > 100 µM | Hs-578T > 100 µM | IGROV-1 > 100 µM | K562 > 100 µM | KM12 > 100 µM | LOX IMVI > 100 µM | MCF7 > 100 µM | MDA-MB-231 > 100 µM | MDA-MB-435 > 100 µM | MDA-N > 100 µM | MOLT-4 > 100 µM | Malme-3M > 100 µM | NCI-H226 > 100 µM | NCI-H23 > 100 µM | NCI-H460 > 100 µM | NCI-H522 > 100 µM | NCI/ADR-RES > 100 µM | OVCAR-3 > 100 µM | OVCAR-4 > 100 µM | OVCAR-5 > 100 µM | OVCAR-8 > 100 µM | PC-3 > 100 µM | RPMI-8226 > 100 µM | RXF 393 > 100 µM | SF-268 > 100 µM | SF-295 > 100 µM | SF-539 > 100 µM | SK-MEL-28 > 100 µM | SK-MEL-5 > 100 µM | SN12C > 100 µM | SNB-19 > 100 µM | SNB-75 > 100 µM | SR > 100 µM | SW-620 > 100 µM | TK-10 > 100 µM | U-251 > 100 µM | UACC-257 > 100 µM | UO-31 > 100 µM
> 100 µM: HCT-15
